We go through one molecule from patent US5474993A, “Lactam inhibitors of cholesterol esterase” (Sterling Winthrop, Inc., priority 1994, dated 1995).

This test addresses T1, pancreatic cholesterol esterase (PCEH) (Homo sapiens, UniProt P19835).
T1 sequence (P19835 21-753): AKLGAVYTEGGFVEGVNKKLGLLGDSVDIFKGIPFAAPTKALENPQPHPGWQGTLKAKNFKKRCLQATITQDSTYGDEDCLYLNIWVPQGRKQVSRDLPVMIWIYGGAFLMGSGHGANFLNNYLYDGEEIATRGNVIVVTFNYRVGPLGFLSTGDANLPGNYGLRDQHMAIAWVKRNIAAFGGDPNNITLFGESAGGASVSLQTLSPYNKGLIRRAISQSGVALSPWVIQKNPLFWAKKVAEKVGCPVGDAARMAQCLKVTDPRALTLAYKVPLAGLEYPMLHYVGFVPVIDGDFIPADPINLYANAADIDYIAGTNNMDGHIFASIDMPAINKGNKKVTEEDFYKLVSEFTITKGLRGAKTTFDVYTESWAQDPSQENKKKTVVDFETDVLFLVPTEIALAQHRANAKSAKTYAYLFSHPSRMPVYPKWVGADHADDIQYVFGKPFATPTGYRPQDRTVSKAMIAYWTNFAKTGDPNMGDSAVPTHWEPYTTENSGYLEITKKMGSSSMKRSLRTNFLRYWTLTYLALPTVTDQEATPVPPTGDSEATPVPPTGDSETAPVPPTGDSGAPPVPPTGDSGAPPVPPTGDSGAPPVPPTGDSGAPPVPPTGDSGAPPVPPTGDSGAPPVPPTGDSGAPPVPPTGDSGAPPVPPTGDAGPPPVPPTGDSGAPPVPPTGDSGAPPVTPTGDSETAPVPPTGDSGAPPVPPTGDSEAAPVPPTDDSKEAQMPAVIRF
Briefly: KM estimation for PNPA substrate. In kind it is biochemical. To be noted: nonlinear fit to the rate-progress curve. On the procedure: Purified pancreatic cholesterol esterase or ester hydrolase (PCH), shown by SDS-acrylamide and isoelectric focusing electrophoresis to be homogeneous,is used in a fresh solution of 90 mM (PNPA) in methanol.
First an initial screen is conducted as follows: to determine the effect of an inhibitor on the rate of enzyme catalyzed hydrolysis of PNPA, enzyme and inhibitor are first incubated at room temperature for ten minutes. Following incubation, enough PNPA substrate to give a final concentration of 0.225 mM is added. The rate of PNPA hydrolysis is monitored by observing an increase of absorption at 405 nm over the course of ten minutes. On average, the concentration of inhibitor is 1300-fold greater than that of the enzyme inhibitor concentrate. The maximum solubility of PNPA of approximately twice the value of Km, limited the accuracy the KM determination for the PNPA substrate. The estimated KM based on a nonlinear fit to the rate-progress curve is KM ~1 mM. With this estimate the substrate concentration used in the screen was approximately 0.25 KM.

Turning to `CC(=O)Oc1ccc([N+](=O)[O-])cc1` [PNPA, p-nitrophenyl acetate], the “estimated KM” value is given as ~ 1 mM.
